Values of other authors as cited in patent US20130243861A1, “PRESS-COATED TABLETS OF PREDNISONE” (CADILA HEALTHCARE LIMITED, priority 2012, published 2013).

Structure (SMILES): C[C@]12C=CC(=O)C=C1CC[C@@H]1[C@@H]2C(=O)C[C@@]2(C)[C@H]1CC[C@]2(O)C(=O)CO [Prednisone, pregna-1,4-diene-3,11,20-trione, 17,21-dihydroxy-]
- solubility in water: very slightly soluble
